Assay results as given in publication PMC9913425, “Pentacyclic Triterpenoids-Based Ionic Compounds: Synthesis, Study of Structure–Antitumor Activity Relationship, Effects on Mitochondria and Activation of Signaling Pathways of Proliferation, Genome Reparation and Early Apoptosis” (Cancers, 2023).

Experiments:
[1] = tested on: A2780; experiment: In vitro cytotoxicity, IC50 by flow cytometry (Guava ViaCount); assay type: cell-based, human
Protocol: (§1) Human cancer cell line HeLa, HL60, A2780 was obtained from the HPA Culture Collections (Salisbury, UK). Cells (Jurkat, K562, U937, Hek293, Fibroblasts) were purchased from Russian Cell Culture Collection (Institute of Cytology of the Russian Academy of Sciences, […], Russia) and cultured according to standard protocols and sterile technique. […] Cells were maintained in RPMI 1640 (Jurkat, K562, U937, HL60) (Gibco, Billings, MT, USA) supplemented with […], 10% FBS (Sigma) and 100 units/mL penicillin–streptomycin (Sigma). All types of cells were grown in an atmosphere of 5% CO2 at 37 °C. The cells were subcultured at 2–3 days intervals. Cells were then seeded in 24-well plates at 5 × 10^4 cells per well and incubated overnight. Jurkat, K562, U937, HL60 cells were subcultured at 2-day intervals with a seeding density of 1 × 10^5 cells per 24-well plates in RPMI with 10% FBS.
(§2) The antitumor activity of the synthesized ionic compounds was initially assessed in vitro on Jurkat, K562, U937, HL60, HEK293, A2780 cell lines, including the determination of IC50 by flow cytometry involving Guava ViaCount (Millipore) reagent kits.

[2] = tested on: HL60; experiment: as above; assay type: cell-based, human
Protocol: as §1, §2

[3] = tested on: HEK293; experiment: as above; assay type: cell-based; settings: conditionally normal
Protocol: as §1, §2

[4] = tested on: K562; experiment: as above; assay type: cell-based
Protocol: as §1, §2

[5] = tested on: U937; experiment: as above; assay type: cell-based
Protocol: as §1, §2

[6] = tested on: Jurkat; experiment: as above; assay type: cell-based; settings: Jurkat cells
Protocol: as §1, §2

[7] = tested on: Jurkat cells; experiment: Apoptosis/necrosis induction (Annexin V Alexa Fluor488, 7AAD staining); assay type: cell-based; settings: compound at IC50 concentration, incubation 2 h
From the text: Multiparametric evaluation of marker molecules, along with the detection of damage to the mitochondrial membrane, makes it possible to clearly determine the type of cell death. The method of cell staining with three different dyes (Annexin V Alexa Fluor488, 7AAD and MitoSense Red) provides simultaneous specification of various aspects of the state of the cell membrane, the state of DNA and the viability of mitochondria; together, it is a reliable sign of intrinsic and mitochondrial apoptosis pathway. Normal cells with intact mitochondrial membranes have high MitoSense Red fluorescence, while cells with decoupled oxidation and phosphorylation have much lower fluorescence. […]
Figure 1 The ratio of the level of mito-damage and the level of apoptosis in Jurkat cells of ionic compounds based on ursolic, oleanolic and betulinic acids.

[8] = tested on: mitochondria of Jurkat tumor cells; experiment: Mitochondrial damage (MitoSense Red staining); assay type: cell-based; settings: compound at IC50 concentration, incubation 2 h
[9] = Homo sapiens, A2780, A2780 cells
[10] = Homo sapiens, HL-60, HL60 cells
[11] = Homo sapiens, HEK293, HEK293 cells
[12] = Homo sapiens, U-937, U937 cells

Compound	IC50 ([1]; A2780 cells) [µM]	IC50 ([2]; HL60 cells) [µM]	IC50 ([3]; HEK293 cells) [µM]	IC50 ([4]; K562 cells) [µM]	IC50 ([5]; U937 cells) [µM]	IC50 [6] [µM]	Apoptosis (%) Early [7] [%]	Apoptosis (%) Late [7] [%]	Apoptosis (%) Necrosis [7] [%]	Mito-Damage (%) [8] [%]	IC50 [1, 9] [µM]	IC50 [2, 10] [µM]	IC50 [3, 11] [µM]	IC50 ([4]; Homo sapiens, K562, K562 cells) [µM]	IC50 [5, 12] [µM]	IC50 ([6]; Homo sapiens, Jurkat) [µM]
1-Benzyl-3-methylimidazolium (3β)-3-hydroxyolup-20(29)-en28-oylate [17d]	0.087 ± 0.009	0.019 ± 0.002	0.189 ± 0.016	0.044 ± 0.002	0.04 ± 0.002	0.016 ± 0.001	4.82	1.44	2.11	9.69	–	–	–	–	–	–
1-Benzyl-3-methylimidazolium (3β)-3-hydroxyours-12-en-28-oylate [16d]	0.027 ± 0.002	0.005 ± 0.001	0.056 ± 0.004	0.012 ± 0.001	0.011 ± 0.001	0.011 ± 0.001	–	–	–	–	–	–	–	–	–	–
1-Butyl-3-methylimidazolium (3β)-3-hydroxyolean-12-en-28-oylate [15b]	0.079 ± 0.007	0.017 ± 0.002	0.167 ± 0.016	0.041 ± 0.002	0.038 ± 0.002	0.019 ± 0.001	–	–	–	–	–	–	–	–	–	–
1-Butyl-3-methylimidazolium (3β)-3-hydroxyolup-20(29)-en28-oylate [17b]	0.074 ± 0.006	0.015 ± 0.001	0.159 ± 0.014	0.039 ± 0.003	0.032 ± 0.003	0.014 ± 0.001	6.45	3.38	1.92	17.39	–	–	–	–	–	–
1-Butyl-3-methylimidazolium (3β)-3-hydroxyours-12-en-28-oylate [16b]	0.396 ± 0.035	0.089 ± 0.008	0.935 ± 0.094	0.336 ± 0.016	0.299 ± 0.014	0.097 ± 0.006	–	–	–	–	–	–	–	–	–	–
1-Hexyl-3-methylimidazolium (3β)-3-hydroxyolean-12-en-28-oylate [15c]	0.157 ± 0.018	0.039 ± 0.004	0.392 ± 0.038	0.08 ± 0.004	0.069 ± 0.003	0.043 ± 0.002	–	–	–	–	–	–	–	–	–	–
1-Hexyl-3-methylimidazolium (3β)-3-hydroxyolean-12-en-28-oylate [15d]	0.231 ± 0.022	0.069 ± 0.007	0.581 ± 0.047	0.159 ± 0.008	0.143 ± 0.007	0.107 ± 0.006	–	–	–	–	–	–	–	–	–	–
1-Hexyl-3-methylimidazolium (3β)-3-hydroxyolup-20(29)-en28-oylate [17c]	0.113 ± 0.01	0.026 ± 0.003	0.293 ± 0.031	0.056 ± 0.003	0.054 ± 0.003	0.029 ± 0.002	3.97	1.70	2.82	8.71	–	–	–	–	–	–
1-Hexyl-3-methylimidazolium (3β)-3-hydroxyours-12-en-28-oylate [16c]	0.039 ± 0.004	0.007 ± 0.001	0.081 ± 0.008	0.016 ± 0.001	0.014 ± 0.001	0.007 ± 0.001	–	–	–	–	–	–	–	–	–	–
C[n+]1ccn(CCOC(=O)[C@]23CCC(C)(C)CC2C2=CCC4[C@@]5(C)CC[C@H](O)C(C)(C)C5CC[C@@]4(C)[C@]2(C)CC3)c1 (stereo partly drawn) [9a, 1-(2-{[(3β)-3-Hydroxyolean-12-en-28-oyl]oxy}ethyl)-3-methylimidazolium Bromide]	–	–	–	–	–	–	1.72	2.79	1.96	5.07	0.132 ± 0.011	0.024 ± 0.002	0.259 ± 0.024	0.078 ± 0.004	0.069 ± 0.004	0.037 ± 0.002
C[n+]1ccn(CCCCOC(=O)[C@]23CCC(C)(C)CC2C2=CCC4[C@@]5(C)CC[C@H](O)C(C)(C)C5CC[C@@]4(C)[C@]2(C)CC3)c1 (stereo partly drawn) [9b, 1-(4-{[(3β)-3-Hydroxyolean-12-en-28-oyl]oxy}butyl)-3-methylimidazolium bromide]	–	–	–	–	–	–	–	–	–	–	0.257 ± 0.024	0.046 ± 0.004	0.449 ± 0.041	0.149 ± 0.007	0.135 ± 0.007	0.029 ± 0.002
C[n+]1ccn(CCCCCCOC(=O)[C@]23CCC(C)(C)CC2C2=CCC4[C@@]5(C)CC[C@H](O)C(C)(C)C5CC[C@@]4(C)[C@]2(C)CC3)c1 (stereo partly drawn) [9c, 1-(6-{[(3β)-3-Hydroxyolean-12-en-28-oyl]oxy}hexyl)-3-methylimidazolium bromide]	0.234 ± 0.021	0.031 ± 0.003	0.318 ± 0.029	0.133 ± 0.006	0.119 ± 0.005	0.026 ± 0.001	–	–	–	–	–	–	–	–	–	–
C[C@@H]1CC[C@]2(C(=O)OCCn3cc[n+](C)c3)CC[C@]3(C)C(=CCC4[C@@]5(C)CC[C@H](O)C(C)(C)C5CC[C@]43C)C2[C@H]1C (stereo partly drawn) [10a, 1-(2-{[(3β)-3-Hydroxyurs-12-en-28-oyl]oxy}ethyl)-3-methylimidazolium bromide]	–	–	–	–	–	–	10.43	5.01	0.71	11.01	0.059 ± 0.005	0.008 ± 0.001	0.091 ± 0.009	0.031 ± 0.002	0.027 ± 0.002	0.017 ± 0.001
C[C@@H]1CC[C@]2(C(=O)OCCCCCCn3cc[n+](C)c3)CC[C@]3(C)C(=CCC4[C@@]5(C)CC[C@H](O)C(C)(C)C5CC[C@]43C)C2[C@H]1C (stereo partly drawn) [10c]	–	–	–	–	–	–	6.61	4.08	0.61	8.89	0.011 ± 0.001	0.002 ± 0.001	0.024 ± 0.002	0.007 ± 0.001	0.006 ± 0.001	0.003 ± 0.001
C=C(C)[C@@H]1CC[C@]2(C(=O)OCCn3cc[n+](C)c3)CC[C@]3(C)C(CCC4[C@@]5(C)CC[C@H](O)C(C)(C)C5CC[C@]43C)C12 (stereo partly drawn) [11a, 1-(2-{[(3β)-3-Hydroxylup-20(29)-en-28-oyl]oxy}ethyl)-3-methylimidazolium bromide]	–	–	–	–	–	–	6.58	0.74	0.56	5.26	0.132 ± 0.012	0.022 ± 0.002	0.237 ± 0.021	0.076 ± 0.004	0.069 ± 0.003	0.025 ± 0.001
C=C(C)[C@@H]1CC[C@]2(C(=O)OCCCCCCn3cc[n+](C)c3)CC[C@]3(C)C(CCC4[C@@]5(C)CC[C@H](O)C(C)(C)C5CC[C@]43C)C12 (stereo partly drawn) [11c]	–	–	–	–	–	–	15.59	1.82	4.37	25.72	0.036 ± 0.003	0.006 ± 0.001	0.054 ± 0.005	0.021 ± 0.001	0.019 ± 0.001	0.039 ± 0.004
C[n+]1ccn(CCCCCCOC(=O)[C@]23CCC(C)(C)CC2C2=CCC4[C@@]5(C)CC[C@H](O)C(C)(C)C5CC[C@@]4(C)[C@]2(C)CC3)c1 (stereo partly drawn) [13a, 1-(6-{[(3β)-3-Hydroxyolean-12-en-28-oyl]oxy}hexyl)-3-methylimidazolium Tetrafluoroborate]	0.018 ± 0.002	0.002 ± 0.001	0.024 ± 0.002	0.006 ± 0.001	0.005 ± 0.001	0.003 ± 0.001	–	–	–	–	–	–	–	–	–	–
C[C@H](O)C(=O)[O-].C[n+]1ccn(CCCCCCOC(=O)[C@]23CCC(C)(C)CC2C2=CCC4[C@@]5(C)CC[C@H](O)C(C)(C)C5CC[C@@]4(C)[C@]2(C)CC3)c1 (stereo partly drawn) [13g, 1-(6-{[(3β)-3-Hydroxyolean-12-en-28-oyl]oxy}hexyl)-3-methylimidazolium L-lactate]	0.013 ± 0.001	0.002 ± 0.001	0.026 ± 0.002	0.014 ± 0.001	0.013 ± 0.001	0.007 ± 0.001	–	–	–	97.4	–	–	–	–	–	–
CC1(C)CCC2(C(=O)[O-])CCC3(C)C(=CCC4C5(C)CCC(O)C(C)(C)C5CCC43C)C2C1.CC[n+]1ccn(C)c1 (stereo not drawn) [15a, 1-Ethyl-3-methylimidazolium (3β)-3-hydroxyolean-12-en-28-oylate]	0.162 ± 0.012	0.034 ± 0.003	0.359 ± 0.031	0.088 ± 0.005	0.079 ± 0.005	0.047 ± 0.003	–	–	–	–	–	–	–	–	–	–
CCn1cc[n+](C)c1.C[C@H]1[C@H](C)CC[C@]2(C(=O)[O-])CC[C@]3(C)C(=CC[C@@H]4[C@@]5(C)CC[C@H](O)C(C)(C)[C@@H]5CC[C@]43C)[C@H]12 [16a, 1-Ethyl-3-methylimidazolium (3β)-3-hydroxyours-12-en-28-oylate]	0.088 ± 0.007	0.018 ± 0.002	0.178 ± 0.018	0.036 ± 0.002	0.034 ± 0.002	0.033 ± 0.002	–	–	–	–	–	–	–	–	–	–
